Measurements taken from article PMC5742828, “α-Glucosidase and Protein Tyrosine Phosphatase 1B Inhibitory Activity of Plastoquinones from Marine Brown Alga Sargassum serratifolium” (Marine Drugs, 2017).

How the values were obtained:
Assay type in all cases: biochemical
[1] = target: T1, PTP1B (human recombinant) (Homo sapiens, UniProt P18031); test: PTP1B inhibitory assay (pNPP substrate); settings: log-dose inhibition curve; mean ± SEM of triplicate experiments
T1 construct: purchased Biomol International LP (Plymouth Meeting, PA, USA)
T1 sequence (P18031 1-435): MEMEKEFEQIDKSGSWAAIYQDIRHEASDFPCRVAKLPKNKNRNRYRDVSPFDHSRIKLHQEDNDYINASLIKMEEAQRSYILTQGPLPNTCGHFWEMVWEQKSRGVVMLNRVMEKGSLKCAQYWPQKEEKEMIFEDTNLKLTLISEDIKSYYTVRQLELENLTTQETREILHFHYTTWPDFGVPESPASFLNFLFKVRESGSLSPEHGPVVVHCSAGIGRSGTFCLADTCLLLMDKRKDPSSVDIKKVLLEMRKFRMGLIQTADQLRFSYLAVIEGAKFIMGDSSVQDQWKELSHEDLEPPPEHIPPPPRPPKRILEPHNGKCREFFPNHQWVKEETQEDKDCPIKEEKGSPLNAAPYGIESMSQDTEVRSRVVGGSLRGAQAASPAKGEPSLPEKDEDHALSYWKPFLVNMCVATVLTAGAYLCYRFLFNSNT
Description: Dithiothreitol (DTT) was purchased from Bio-Rad Laboratories (Hercules, CA, USA) and PTP1B (human recombinant) was purchased from Biomol International LP (Plymouth Meeting, PA, USA). ONOO^− was purchased from Molecular Probes Cayman (Ann Arbor, MI, USA). All other chemicals and solvents used were purchased from E. Merck, Fluka, and Sigma-Aldrich, unless otherwise stated. The PTP1B inhibitory activities of the plastoquinones were evaluated using pNPP [68]. Recombinant PTP1B enzyme (0.5 units diluted with a PTP1B reaction buffer) was added with or without sample. The plate was pre-incubated at 37 °C for 10 min and then substrate (2 mM pNPP) was added. Following incubation at 37 °C for 15 min, the enzymatic reaction was terminated by the addition of 10 M NaOH.

[2] = target: T1, PTP1B (human recombinant); test: Kinetic study against PTP1B (Dixon plots); settings: Dixon plot; pNPP 0.5, 1.0, 2.0 mM
Description: (§1) In an attempt to explain the mode of enzymatic inhibition of sargahydroquinoic acid, sargachromenol, and sargaquinoic acid, kinetic analysis was performed at different concentrations of the substrate (pNPP for PTP1B and pNPG for α-glucosidase) and inhibitor.
Figure 3 Dixon plots for PTP1B inhibition of compounds. (a) sargahydroquinoic acid; (b) sargachromenol and (c) sargaquinoic acid were tested in the presence of different concentrations of substrate: 2.0 mM (●); 1.0 mM (ο); 0.5 mM (▼).
(§2) To determine the modes of enzyme inhibition, Dixon plots were used. The kinetic analyses were performed at different concentrations of substrate (0.625, 1.25, and 2.5 mM pNPG for α-glucosidase; 0.5, 1.0, and 2.0 mM pNPP for PTP1B) and various concentrations of plastoquinones (0, 0.4, 2.0, and 10.0 µM for PTP1B and 0, 25, 50 and 100 µM for α-glucosidase, respectively). Enzymatic inhibition of the test plastoquinones was evaluated by monitoring the effects of different concentrations of the substrate in the Dixon plots (single reciprocal plots). The enzymatic procedure consisted of the same aforementioned assay method. The inhibition constants (Ki) were determined via interpretation of the Dixon plots, where the value of the x-axis implies -Ki.

Yeast α-glucosidase = Yeast α-glucosidase (Saccharomyces cerevisiae, UniProt P53341); test: Kinetic study against α-glucosidase (Dixon plots); settings: Dixon plot; pNPG 0.625, 1.25, 2.5 mM
Chain of Yeast α-glucosidase (P53341 whole entry): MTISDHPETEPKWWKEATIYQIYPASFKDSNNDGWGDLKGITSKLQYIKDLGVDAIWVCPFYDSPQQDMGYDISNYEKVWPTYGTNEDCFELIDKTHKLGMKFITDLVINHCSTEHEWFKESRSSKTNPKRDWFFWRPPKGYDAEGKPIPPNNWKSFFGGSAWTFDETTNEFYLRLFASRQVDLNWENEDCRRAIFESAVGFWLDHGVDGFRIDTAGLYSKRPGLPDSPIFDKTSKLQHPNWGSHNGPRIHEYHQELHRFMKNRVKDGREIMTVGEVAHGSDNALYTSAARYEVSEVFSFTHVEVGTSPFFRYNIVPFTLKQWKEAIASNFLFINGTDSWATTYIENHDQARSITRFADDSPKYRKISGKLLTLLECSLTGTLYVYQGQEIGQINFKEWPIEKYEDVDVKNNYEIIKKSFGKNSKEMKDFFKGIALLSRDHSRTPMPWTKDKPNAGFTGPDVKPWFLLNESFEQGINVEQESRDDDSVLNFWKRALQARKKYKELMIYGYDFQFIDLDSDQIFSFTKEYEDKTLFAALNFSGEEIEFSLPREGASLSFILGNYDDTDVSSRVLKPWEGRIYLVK
Description: as §1
Figure 4 Dixon plots for α-glucosidase inhibition of compounds. (a) sargachromenol and (b) sargaquinoic acid were tested in the presence of different concentrations of substrate: 2.5 mM (●); 1.25 mM (ο); 0.625 mM (▼).
as §2

[3] = tested on: bovine serum albumin (BSA); test: Inhibition of ONOO−-mediated albumin nitration (western blot, 3-nitrotyrosine antibody); settings: ONOO− 200 µM
Description: Figure 5 Dose-depended inhibition of ONOO^−-mediated albumin nitration by plastoquinones. Mixtures of test samples, bovine serum albumin (BSA), and ONOO^− were incubated with shaking at 37 °C for 30 min. The reactant was resolved in 10% polyacrylamide gel via electrophoresis. (a) sargahydroquinoic acid; (b) sargachromenol; and (c) sargaquinoic acid were used at the indicated concentrations; (d) Quantification of band intensity was calculated using CS Analyzer 3.00 (ATTO Corp., Tokyo, Japan). ^# p < 0.05 indicates a significant difference from the untreated normal group, * p < 0.05 indicate significant differences from the ONOO^− treated control.
The inhibition of ONOO^–-mediated nitrated albumin was evaluated using the method of Aulak et al.. Samples were added to bovine serum albumin (BSA) and mixed with ONOO^− (200 µM). After 10 min incubation (room temperature), the sample solution was added to Bio-Rad 2X Laemmli Sample buffer with mercaptoethanol and then boiled for 7 min. The reactant was resolved in 10% polyacrylamide gel via electrophoresis and transferred onto PVDF membranes. Pre-stained blue protein markers were used for molecular weight determination. Monoclonal anti-nitrotyrosine antibody (85 kDa) was used as a primary antibody and horseradish peroxidase-conjugated sheep anti-mouse secondary antibody was used as a secondary antibody. Antibody labeling was visualized using the Supersignal West Pico Chemiluminescent substrate (Pierce Chemical Co., Rockford, IL, USA). Densitometric analysis of the western blot results was determined using CS analyzer v3.00 (ATTO Corp.).

Row | SMILES | IC50 [1] | Ki [2] | PTP1B Inhibition Type [2] | α-Glucosidase Inhibition Type (Yeast α-glucosidase) | Inhibition of ONOO−-mediated albumin nitration ([3]; pretreatment at 2.5–10 μM) | Inhibition of ONOO−-mediated albumin nitration ([3]; pretreatment at 5–25 μM)
1 | CC(C)=CCC/C(=C/CC/C(C)=C/CCC1(C)C=Cc2cc(O)cc(C)c2O1)C(=O)O (centres unmarked) [Sargachromenol, sargachromenol] | 11.8 ± 3.35 µM | 5.85 µM | Non-competitive | Non-competitive | strong inhibition | –
2 | CC(C)=CCC/C(=C/CC/C(C)=C/CC/C(C)=C/Cc1cc(O)cc(C)c1O)C(=O)O [Sargahydroquinoic acid, sargahydroquinoic acid] | 5.14 ± 0.07 µM | 2.21 µM | Mixed | – | – | markedly dose-dependent inhibition
3 | CC(C)=CCC/C(=C/CC/C(C)=C/CC/C(C)=C/CC1=CC(=O)C=C(C)C1=O)C(=O)O [Sargaquinoic acid, sargaquinoic acid] | 14.15 ± 0.02 µM | 5.2 µM | Mixed | Mixed | – | markedly dose-dependent inhibition
